Patent US20160120932A1, “TRANSPLANT SITE-FORMING AGENT, TRANSPLANT SITE-FORMING DEVICE, ANGIOGENIC AGENT AND ANGIOGENIC DEVICE” (Kyoto University, priority 2014, published 2016)

Legend:
[1] = tested on: white blood cells or bone-marrow cells; details: JP-A H10-259134; cited from earlier work
diabetic ACI rats [2] = assay: Glucose tolerance test of recipients after transplantation of pancreatic islets; format: in vivo, rat; details: glucose intraperitoneally (60 mg/kg)
Excerpt: (§1) Pancreatic islets were separated from a F344 rat as a donor, and were transplanted to the diabetic ACI rats as prepared above as recipients. Specifically, the agarose rods containing SEK-1005 as prepared in the same process as described above were implanted on the right side and on the left side of the backbone of the diabetic rats, respectively, and were removed 10 days after the implantation. Thereafter, 1500 pancreatic islets separated from the […] rat were transplanted to each of the spaces formed by removing the agarose rods, respectively (3000 pancreatic islets in total).
In the test, changes in the blood glucose level after intraperitoneally administering glucose (60 mg/kg) were examined.
Further, glucose was administered in the same manner as the above to the recipients at 100 to 105 days after the transplantation of pancreatic islets, and the changes in the blood glucose level were examined. As a result, a trend that a degree of decrease in blood glucose level was less than the recipients at 50 to 55 days after the transplantation of the pancreatic islets was observed. […] On the other hand, the diabetic rats maintained a blood glucose level of as high as approximately 500 mg/dL. The error bars in FIG. 7 each indicate standard deviations (normal; n=4, diabetic; n=3, 40 days after transplantation; n=4, 90 days after transplantation; n=4).

[3] = tested on: subcutaneous tissue of diabetic ACI rats; assay: Evaluation of effect of inducing angiogenesis: observation of tissue around agarose rod implanted under the skin (gross and HE-stained slice); format: in vivo, rat
Method: (§2) Diabetic rats were prepared by intraperionerally administering streptozocin (STZ) to ACI rats (8-week old, male). The blood glucose level of the rats were measured, and it was determined that diabetes was induced when the blood glucose level exceeded 400 mg/dL for 2 days in succession. A substrate formed of 4.5% agarose gel having a rod shape of 25 mm in length and 4 mm in diameter was impregnated with SEK-1005 (100 μg) dissolved in alcohol. After sufficiently evaporating alcohol, the agarose rod was impregnated with physiological saline. The agarose rods were implanted under the skin of the diabetic rats at two portions, on the right side and on the left side of the backbone, respectively. As a control, agarose rods that were impregnated with physiological saline without SEK-1005 were implanted under the skin of a diabetic rat, on the right side and on the left side of the backbone, respectively.
Ten days after the implantation, the agarose rods were removed and the surrounding tissues were observed.

diabetic ACI rats [4] = assay: Plasma insulin concentration of recipients after transplanting pancreatic islets; format: in vivo, rat; details: at 40 days and at 90 days after transplanting the pancreatic islets; casual measurements
Excerpt: as §1
The error bars in FIG. 6 each indicate standard deviations (normal; n=4, diabetic; n=3, 40 days after transplantation; n=4, 90 days after transplantation; n=4). The values of the plasma insulin concentration are casual measurements.

diabetic ACI rats [5] = assay: Blood glucose level of recipients after transplanting pancreatic islets to the site from which the agarose rod was removed; format: in vivo; details: SEK-1005 rods removed after 10 days, 3000 pancreatic islets from F344 rat transplanted; casual blood glucose level
Method: as §2
Pancreatic islets were separated from a F344 rat as a donor, and were transplanted to the diabetic ACI rats as prepared above as recipients. Specifically, the agarose rods containing SEK-1005 as prepared in the same process as described above were implanted on the right side and on the left side of the backbone of the diabetic rats, respectively, and were removed 10 days after the implantation. […]

[6] = tested on: subcutaneous tissue of diabetic ACI rats; assay: Amount of hemoglobin in subcutaneous tissue at contact portion with the agarose rod; format: in vivo, rat; details: agarose rod containing 10 μg or 100 μg of SEK-1005, implanted for 10 days
Method: as §2
The data shown in FIG. 3 are the measurement results of the amount of hemoglobin of a diabetic ACI rat to which an agarose rod was not implanted, a diabetic rat implanted with an agarose rod not containing SEK-1005, a diabetic rat implanted with an agarose rod containing 10 μg of SEK-1005, and a diabetic rat implanted with an agarose rod containing 100 μg of SEK-1005. The measurement was conducted after removing the agarose rod that had been implanted for 10 days. […]

diabetic ACI rats [7] = assay: HE-stained and immunofluorescent-stained tissue slice of the transplant site; format: in vivo, rat; details: 106 days after transplantation
Excerpt: as §1
The upper images in FIG. 8 are photographs of a HE-stained tissue slice prepared from a site at which the pancreatic islets were transplanted, obtained from a recipient with a normalized blood glucose level at 106 days after the transplantation of the pancreatic islets.
The lower image in FIG. 8 is an immunofluorescent-stained image of a tissue slice obtained at the substantially same site to the HE-stained tissue slice.

diabetic rat = details: device containing bFGF; cited from earlier work

| Compound | amount of granulation tissue [1] | changes in blood glucose level in glucose tolerance test (FIG. 7) (diabetic ACI rats [2]; 50 to 55 days after transplantation) | changes in blood glucose level in glucose tolerance test (FIG. 7) (diabetic ACI rats [2]; 100 to 105 days after transplantation) | development of blood vessels having a small diameter at the surrounding tissue (FIG. 1) ([3]; agarose rod containing SEK-1005 (100 μg) implanted under the skin for 10 days, compared to rod not containing SEK-1005) | development of blood vessels having a small diameter in HE-stained subcutaneous tissue slice (FIG. 2) ([3]; contact portion with agarose rod containing SEK-1005, compared with rod not containing SEK-1005) | plasma insulin concentration versus diabetic rat to which pancreatic islets were not transplanted (FIG. 6) (diabetic ACI rats [4]) | plasma insulin concentration versus normal rat (FIG. 6) (diabetic ACI rats [4]) | blood glucose levels of recipients (FIG. 4) (diabetic ACI rats [5]) | amount of hemoglobin in the subcutaneous tissue (FIG. 3) [6] | blood vessels in the cell clumps, HE-stained tissue slice of transplant site (FIG. 8) (diabetic ACI rats [7]) | insulin-positive cells in immunofluorescent-stained tissue slice (FIG. 8) (diabetic ACI rats [7]) | pancreatic islet cell clumps in HE-stained tissue slice of transplant site (FIG. 8) (diabetic ACI rats [7]; recipient with normalized blood glucose level) | blood glucose level after transplanting pancreatic islets at the site after removing the device (diabetic rat) | generation of blood vessels at the site under the skin where the device was implanted (diabetic rat) |
| --- | --- | --- | --- | --- | --- | --- | --- | --- | --- | --- | --- | --- | --- | --- |
| CC(C)CC1CCC(O)(C(C)(O)C(=O)NC2C(=O)N3NCCCC3C(=O)N(O)C(C)C(=O)N(C)C(Cc3ccccc3)C(=O)N3NCCCC3C(=O)NC(CO)C(=O)OC2C(C)C)OC1C (stereo not drawn) [SEK-1005, Ser,3-hydroxy-N-[2-hydroxy-1-oxo-2-tetrahydro-2-hydroxy-6-methyl-5-(2-methylpropyl)-2H-pyran-2-yl-propyl]-Leu-Pip(hexahydro-3-pyridazinecarbonyl)-N-hydroxy-Ala-N-methyl-Phe-Pip-rho-lactone] | increasing the amount of a granulation tissue | controlled to a similar level to a normal rat | controlled to a degree similar to that of a normal rat | blood vessels having a small diameter were developed | blood vessels having a small diameter were developed | significantly higher | did not show a significant difference | four in six recipients were normalized over 100 days | increased | many blood vessels having a small diameter penetrated the cell clumps | insulin-positive cells were observed | many cell clumps which were considered to be pancreatic islets existed | – | – |
| bFGF: basic fibroblast growth factors, a substance for inducing angiogenesis | – | – | – | – | – | – | – | – | – | – | – | – | normalized during a long period of time | generation of blood vessels having a small diameter was observed |
